Measured values from PubChem BioAssay (NCI).
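How tested: cells in 96-well plates exposed to compound for 48 hours at five concentrations. GI50 marks 50% less growth. At the TGI there is no net growth.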

Assays:
Test in all cases: NCI-60 cell line screen, 48 h
A549 NSCLC = system: A549 NSCLC
RXF 393 renal = system: RXF 393 renal
T-47D breast = system: T-47D breast
SF-268 CNS = system: SF-268 CNS
SF-539 CNS = system: SF-539 CNS
MCF7 breast = system: MCF7 breast
NCI-H460 lung = system: NCI-H460 lung
CAKI-1 renal = system: CAKI-1 renal
MDA-MB-231 breast = system: MDA-MB-231 breast
A498 renal = system: A498 renal

Row | Compound | GI50 (A549 NSCLC) [µM] | TGI (A549 NSCLC) [µM] | GI50 (RXF 393 renal) [µM] | TGI (RXF 393 renal) [µM] | GI50 (T-47D breast) [µM] | TGI (T-47D breast) [µM] | GI50 (SF-268 CNS) [µM] | TGI (SF-268 CNS) [µM] | GI50 (SF-539 CNS) [µM] | TGI (SF-539 CNS) [µM] | GI50 (MCF7 breast) [µM] | TGI (MCF7 breast) [µM] | GI50 (NCI-H460 lung) [µM] | TGI (NCI-H460 lung) [µM] | GI50 (CAKI-1 renal) [µM] | TGI (CAKI-1 renal) [µM] | GI50 (MDA-MB-231 breast) [µM] | TGI (MDA-MB-231 breast) [µM] | GI50 (A498 renal) [µM] | TGI (A498 renal) [µM]
1 | COc1cc2c3c(n(CCCCN)c(=O)c2cc1OC)-c1cc2c(cc1C3=O)OCO2 | 1.06 | 11.9 | 1.47 | 5.72 | 1.22 | 10.3 | 0.801 | 5.55 | 0.0434 | 0.139 | 0.0191 | 1.13 | 0.114 | 2.07 | 0.656 | 4.12 | 0.442 | 1.56 | 7.81 | 17
2 | COc1cc(Nc2c(C#N)cnc3cc(OCCCN4CCN(C)CC4)c(OC)cc23)c(Cl)cc1Cl | 2.74 | 13.5 | 0.85 | 6.02 | 3.1 | 18.2 | 2.34 | 10.3 | 2.3 | 5.83 | 2.79 | 17.8 | 3.99 | 17.7 | 0.482 | 5.13 | 2.76 | 7.14 | 0.586 | 2.22
3 | CNC(=O)c1cccc2cc(Oc3ccnc4cc(OCC5(N)CC5)c(OC)cc34)ccc12 | 10.9 | 26.3 | 4.42 | 20.4 | 17.8 | 39.2 | 6.01 | 24.2 | 0.403 | 6.61 | 3.89 | 17.8 | 5.12 | 18.1 | 11.9 | 25 | 9.79 | 27.9 | 0.167 | 3.12
4 | COc1cc2oc3cc(=O)cc4oc(-c5ccccc5)cc(c2c2c1CCC(c1ccccc1)O2)c43 (stereo not drawn) |  | > 100 |  | > 100 |  | 54.8 |  | > 100 |  | > 100 |  | 59.2 |  | > 100 |  | > 100 |  | 68.1 |  | > 100
5 | COC(=O)[C@@]12OC[C@]34[C@H]([C@@H](O)[C@@H]1O)[C@@]1(C)[C@H](O)C(=O)C=C(C)[C@@H]1C[C@H]3OC(=O)C(OC(C)=O)[C@@H]24 (stereo partly drawn) | 0.0381 | 0.294 | 0.0253 | 0.0673 | 0.0362 | 0.3 | 0.0428 | 0.231 | 0.0218 | 0.0612 | 0.0214 | 0.0701 | 0.0183 | 0.0524 | 0.107 | 0.394 | 0.0979 | 0.366 | 0.0146 | 0.0413
6 | CC1OC(n2c3ccccc3c3c4c(c5c6ccccc6[nH]c5c32)C(=O)N(CCN[C@@H]2CCC[C@H]2N)C4=O)CC(O)C1O (stereo partly drawn) | 2.48 | 9.17 | 1.68 | 7.45 | 1.04 | 6.46 | 1.48 | 8.06 |  |  | 0.768 | 2.05 | 0.744 | 1.57 | 6.24 | 12.9 | 1.88 | 8.16 | 1.93 | 8.24
7 | O=S(=O)(Nc1ccc(Br)c(Cl)c1)c1ccc(-c2cnc(C3CC3)o2)cc1 | 0.789 | 18.3 | 0.348 | 3.48 | 0.437 | 21.1 | 1.56 | 23.5 | 0.374 | 5.08 | 0.339 | 16 | 0.415 | 12.6 | 0.431 | 16.4 | 1.91 | 16.4 | 0.189 | 0.845
8 | COc1cccc(-n2nc(C)c3c(N/N=C(\C)c4ccncc4)ncnc32)c1 | > 25 | > 25 | 8.15 | > 25 | 6.6 | > 25 | > 25 | > 25 | 22.8 | > 25 | > 25 | > 25 | > 25 | > 25 | > 25 | > 25 | 8.4 | > 25 | 4.76 | > 25
9 | Cc1ccc(C(CC(=O)c2ccccc2)C2C(=O)NC(=O)NC2=O)cc1 (stereo not drawn) | > 100 | > 100 | > 100 | > 100 | > 100 | > 100 | > 100 | > 100 | > 100 | > 100 | > 100 | > 100 | > 100 | > 100 | > 100 | > 100 | > 100 | > 100 | > 100 | > 100
10 | C[C@]12CCc3sc(NCCc4ccccc4)nc3C1=CC[C@@H]1[C@@H]2CC[C@]2(C)C(=O)CC[C@@H]12 | 7 | > 100 | 1.73 | 4.49 | 3.05 | 25.2 | 4.62 | > 100 | 1.69 | 3.62 | 2.68 | > 100 | 4.47 | > 100 | 3.13 | 11.1 | 3.4 | 21.4 | 4.43 | > 100
11 | O=C(Nc1ccncc1)C(=O)c1cn(Cc2ccc(Cl)cc2)c2ccccc12 | 0.399 | > 100 | 0.0302 |  | 0.0436 | > 100 | 0.0775 | > 100 | 0.0278 | 0.0788 | 0.0363 | > 100 | 0.0585 | > 100 | 0.0355 | > 100 | 0.179 | > 100 | 0.544 | > 100
12 | CCN(Cc1ccc(F)cc1)c1ccc(CO)c(F)c1 | 10.5 | > 66.1 | 5.47 | 25.9 | 1.35 | 8.31 | 24.8 | > 92.3 | 18.8 | 56.5 | 6.03 | 60.7 | 3.93 | 20.4 | 3.74 | 36.4 | 18.9 | > 69 | 0.114 | 0.252
13 | CN[C@H](C#Cc1c(F)ccc2c1/C(=C/c1[nH]ccc1OC)C(=O)N2)CO | 0.354 | 2.82 | 0.0855 | 0.704 | 2.27 | 13.6 | 0.509 | 2.21 | 0.431 | 1.53 | 0.569 | 3.68 | 0.358 | 2.58 | 0.0314 | 0.736 | 0.787 | 3 | 0.452 | 3.35
14 | CC1CC2OC(=O)C(C)C2CC2(C)C(OC3OC(CO)C(O)C(O)C3O)OCCC12 (stereo not drawn) |  | > 100 |  | > 100 |  | > 100 |  | > 100 |  | > 100 |  | > 100 |  | > 100 |  | > 100 |  | > 100 |  | > 100
15 | COc1ccc(-c2nc(-c3ccccc3)c(-c3ccccc3)[nH]2)cc1OC1CCCC1 | > 100 | > 100 | 8.3 | 99.5 | 34.9 | > 100 | > 100 | > 100 | > 100 | > 100 | > 100 | > 100 | > 100 | > 100 | 88 | > 100 | 15.5 | > 100 | > 100 | > 100
16 | c1cc2n(n1)CCN2 |  | 8580 |  | 9590 |  | > 10000 |  | 8200 |  | 4990 |  | > 8650 |  | 6710 |  | 4680 |  | > 10000 |  | 6270
17 | Cc1cc(NCCN(C(C)C)C(C)C)nc(/N=C(\N)Nc2ccc(Cl)c(C(F)(F)F)c2)n1 | 0.356 | 1.11 | 0.249 | 0.75 | 0.183 | 0.361 | 0.67 | 1.76 | 0.179 | 0.329 | 0.269 | 0.851 | 0.463 | 1.62 | 0.427 | 1.02 | 0.292 | 1.04 | 0.139 | 1.42
18 | CCOC(=O)c1cc2c(n1Cc1cccc(OC)c1)-c1oncc1CCC2 | 0.915 | > 100 | 1.07 | 6.89 | 1.27 | > 100 | 9.03 | > 100 | 1.19 | 4.68 | 0.385 | > 100 | 3.52 | > 100 | 2.12 | > 100 | 4.06 | > 100 | 0.881 | 17.6
19 | O=C(O)C1OC1(c1cccc(Cl)c1)c1ccccc1Cl (stereo not drawn) |  | > 100 |  | 82.1 |  | > 100 |  | 47.8 |  | 43.7 |  | > 100 |  | > 100 |  | 81.8 |  | 35.8 |  | > 100
20 | COc1cccc(C2=C(c3c(C)n(C)c4ccccc34)C(=O)NC2=O)c1 | 16.4 | > 25 | 12 | > 25 | 8.83 | > 25 | > 23.1 | > 25 | > 25 | > 25 | 17.5 | > 25 | > 25 | > 25 | > 25 | > 25 | > 25 | > 25 | 8.99 | > 25
21 | COc1ccc2c(=O)cc(-c3ccncc3)oc2c1OC |  | > 100 |  | 69.6 |  | > 100 |  | 91.7 |  |  |  | > 100 |  | 72.8 |  | > 100 |  | > 100 |  | 49.8
22 | Cc1ccc(-c2nc(C#N)c(S(=O)(=O)n3nc(C)cc3N)o2)cc1 | 19.6 | 39.8 | 1.87 | 3.56 | 2.27 | 5.76 | 16.4 | 36.2 | 5.07 | 17.4 | 3.07 | 15.5 | 19.5 | 41.5 | 4.3 | 14.2 | 2.42 | 6.31 | 16.3 | 32.9
23 | O=c1ccn(C2CC(O)C(CO)O2)c(=O)[nH]1 (stereo not drawn) | > 5000 | > 5000 | > 5000 | > 5000 | > 5000 | > 5000 | > 5000 | > 5000 | > 5000 | > 5000 | 3000 | > 5000 | > 5000 | > 5000 | > 5000 | > 5000 | > 5000 | > 5000 | > 5000 | > 5000
24 | O=CN/C=C/c1cccc(O)c1 |  | 79.7 |  | 85.1 |  | 98.7 |  | > 93.4 |  | > 83 |  | > 68.4 |  | 77.6 |  | > 79.7 |  | 99.2 |  | > 76.8
25 | CCn1cnc(C[C@H](NC(=O)[C@@H](NC(=O)Nc2cc(C(F)(F)F)cc(C(F)(F)F)c2)C(C)C)C(=O)OC)c1 | 3.19 | > 10 | 1.73 | 3.32 | 3.66 | > 10 | 1.76 | 3.4 | 3.36 | > 10 | 1.83 | 3.8 | 2.13 | 4.43 | > 10 | > 10 | 1.9 | 4.11 | > 10 | > 10
26 | NC(=O)c1ccccc1Nc1ccc2nnc(-c3ccncc3)n2n1 |  |  | 3.77 | 18.1 | 4.69 | 20.3 | 5.56 | 21 | 15.3 | 28.9 | 3.1 | 16.1 | 4.44 | 16.9 | 2.45 | 6.42 | 9.39 | 25.6 | 14.2 | 27.2
27 | O=C(O)c1cc2ccc3ccccc3c2oc1=O |  | > 100 |  | > 100 |  | > 100 |  | > 100 |  | > 100 |  | > 100 |  | > 100 |  |  |  | > 100 |  | > 100
